Measurements from PubChem BioAssay AID2060621 (Molecular Pharmacology Branch, DTP, NCI, 2025).
Where “and” joins values, the source holds several entries; their conditions need not be identical. Identical values can stand only once.

System: 324938-238-R-J1-PDC complex spheroids viability
Assay: Anticancer human tumor 324938-238-R-J1-PDC patient-derived bladder carcinoma cell line growth inhibition [CLK]
Conditions: for viability, T/C: stronger effect = lower value
Method in brief: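 Patient-derived tumor cells grown as complex spheroids with HUVEC endothelial cells and mesenchymal stem cells, treated with drug combinations. Concentrations descend in half-log steps from near clinical Cmax, or from 10 microM if Cmax unknown.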

[1] = curve of first compound, second compound 0.0316 µM
[2] = curve of first compound, second compound 0.1 µM
[3] = curve of first compound, second compound 0.316 µM
[4] = curve of first compound, second compound 1 µM
[5] = curve of first compound, second compound 3.16 µM
[6] = curve of first compound, second compound 10 µM
[7] = second compound 0.0316 µM, first compound 0.0316 µM
[8] = second compound 0.0316 µM, first compound 0.1 µM
[9] = second compound 0.0316 µM, first compound 0.316 µM
[10] = second compound 0.0316 µM, first compound 1 µM
[11] = second compound 0.0316 µM, first compound 3.16 µM
[12] = second compound 0.0316 µM, first compound 10 µM
[13] = second compound 0.1 µM, first compound 0.0316 µM
[14] = second compound 0.1 µM, first compound 0.1 µM
[15] = second compound 0.1 µM, first compound 0.316 µM
[16] = second compound 0.1 µM, first compound 1 µM
[17] = second compound 0.1 µM, first compound 3.16 µM
[18] = second compound 0.1 µM, first compound 10 µM
[19] = second compound 0.316 µM, first compound 0.0316 µM
[20] = second compound 0.316 µM, first compound 0.1 µM
[21] = second compound 0.316 µM, first compound 0.316 µM
[22] = second compound 0.316 µM, first compound 1 µM
[23] = second compound 0.316 µM, first compound 3.16 µM
[24] = second compound 0.316 µM, first compound 10 µM
[25] = second compound 1 µM, first compound 0.0316 µM
[26] = second compound 1 µM, first compound 0.1 µM
[27] = second compound 1 µM, first compound 0.316 µM
[28] = second compound 1 µM, first compound 1 µM
[29] = second compound 1 µM, first compound 3.16 µM
[30] = second compound 1 µM, first compound 10 µM
[31] = second compound 3.16 µM, first compound 0.0316 µM
[32] = second compound 3.16 µM, first compound 0.1 µM
[33] = second compound 3.16 µM, first compound 0.316 µM
[34] = second compound 3.16 µM, first compound 1 µM
[35] = second compound 3.16 µM, first compound 3.16 µM
[36] = second compound 3.16 µM, first compound 10 µM
[37] = second compound 10 µM, first compound 0.0316 µM
[38] = second compound 10 µM, first compound 0.1 µM
[39] = second compound 10 µM, first compound 0.316 µM
[40] = second compound 10 µM, first compound 1 µM
[41] = second compound 10 µM, first compound 3.16 µM
[42] = second compound 10 µM, first compound 10 µM
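Further: viability read after seven days of drug exposure.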
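Wherever viability, T/C is given: 100% = DMSO vehicle control wells.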

Compound: C=C(F)C(=O)N1CCN(c2nc(OCC3CCCN3C)nc3c2CCN(c2cccc4cccc(Cl)c24)C3)CC1CC#N (stereo unspecified) + CN1CCN(c2cc(C(=O)Nc3cc4cc(-c5cnn(C)c5)ccc4cn3)ccn2)CC1
- IC50 [1]: 3120 nM
- IC50 [2]: 1560 nM
- IC50 [3]: < 31.6 nM
- IC50 [4]: < 31.6 nM
- IC50 [5]: < 31.6 nM
- IC50 [6]: < 31.6 nM
- viability, T/C [7]: 75.2%
- viability, T/C [8]: 88.7%
- viability, T/C [9]: 81.8%
- viability, T/C [10]: 78.8%
- viability, T/C [11]: 49.6%
- viability, T/C [12]: 2.48%
- viability, T/C [13]: 60.9%
- viability, T/C [14]: 64%
- viability, T/C [15]: 57.3%
- viability, T/C [16]: 53.3%
- viability, T/C [17]: 43.3%
- viability, T/C [18]: 2.19%
- viability, T/C [19]: 25.4%
- viability, T/C [20]: 26.9%
- viability, T/C [21]: 22.3%
- viability, T/C [22]: 24.5%
- viability, T/C [23]: 19.6%
- viability, T/C [24]: 0.24%
- viability, T/C [25]: 2.43%
- viability, T/C [26]: 1.75%
- viability, T/C [27]: 2.24%
- viability, T/C [28]: 1.87%
- viability, T/C [29]: 0.88%
- viability, T/C [30]: 0.23%
- viability, T/C [31]: 0.21%
- viability, T/C [32]: 0.19%
- viability, T/C [33]: 0.24%
- viability, T/C [34]: 0.17%
- viability, T/C [35]: 0.33%
- viability, T/C [36]: 0.12%
- viability, T/C [37]: 0.34%
- viability, T/C [38]: 0.23%
- viability, T/C [39]: 0.23%
- viability, T/C [40]: 0.35%
- viability, T/C [41]: 0.2%
- viability, T/C [42]: 0.2%

Compound: COc1ccc([C@@H](O)c2cc(-c3ncnc4cc(N5CCOCC5)ccc34)c(F)cc2Cl)nn1 + CNC(=O)c1ccc(Nc2nc(OC3CCCC3)c3c(-c4ccc5nc(C)oc5c4)c[nH]c3n2)c(OC)c1
- IC50 [1]: 3770 nM
- IC50 [2]: < 31.6 nM
- IC50 [3]: < 31.6 nM
- IC50 [4]: < 31.6 nM
- IC50 [5]: < 31.6 nM
- IC50 [6]: < 31.6 nM
- viability, T/C [7]: 86.8%
- viability, T/C [8]: 76.4%
- viability, T/C [9]: 70.3%
- viability, T/C [10]: 63.5%
- viability, T/C [11]: 56.5%
- viability, T/C [12]: 35.9%
- viability, T/C [13]: 27.6%
- viability, T/C [14]: 26.3%
- viability, T/C [15]: 22.9%
- viability, T/C [16]: 28%
- viability, T/C [17]: 29%
- viability, T/C [18]: 22.7%
- viability, T/C [19]: 18.5%
- viability, T/C [20]: 20.5%
- viability, T/C [21]: 17.9%
- viability, T/C [22]: 16.5%
- viability, T/C [23]: 14.6%
- viability, T/C [24]: 16.1%
- viability, T/C [25]: 16%
- viability, T/C [26]: 14.5%
- viability, T/C [27]: 16%
- viability, T/C [28]: 14.8%
- viability, T/C [29]: 12.9%
- viability, T/C [30]: 11.2%
- viability, T/C [31]: 18.1%
- viability, T/C [32]: 14.2%
- viability, T/C [33]: 16.2%
- viability, T/C [34]: 14.7%
- viability, T/C [35]: 14.9%
- viability, T/C [36]: 9.35%
- viability, T/C [37]: 15.6%
- viability, T/C [38]: 16.7%
- viability, T/C [39]: 16.9%
- viability, T/C [40]: 16.8%
- viability, T/C [41]: 11.1%
- viability, T/C [42]: 12.1%

Compound: COc1c(OCCCN2CCOCC2)ccc2c3n(c(=NC(=O)c4cnc(N)nc4)nc12)CCN3
- viability, T/C (compound 0.00316 µM): 64.9% and 69.6%
- viability, T/C (compound 0.01 µM): 49.7% and 52.5%
- viability, T/C (compound 0.0316 µM): 30.7% and 33.4%
- viability, T/C (compound 0.1 µM): 15.3% and 19%
- viability, T/C (compound 0.316 µM): 4.22% and 7.44%
- viability, T/C (compound 1 µM): 0.44% and 1.03%
- IC50 (curve of compound): 9.79 nM and 11.5 nM
